Where a name gives a salt, the structure may show the parent alone. Read-outs that look alike come from different tables or passages of the source.
Key:
Type in all cases: cell-based
A431 cells = assay: Cellular proliferation (Alamar Blue) assay, A431
[1] = biological target: EGFR (A767_dupASV) expressing Ba/F3 stable cell line (Homo sapiens, UniProt P00533, DUP767-769, cells depend on it); assay: Cellular proliferation (Alamar Blue) assay, EGFR A767_dupASV Ba/F3; settings: 72 hr, read-out: A767 IC50
Sequence of EGFR (A767_dupASV) expressing Ba/F3 stable cell line (P00533 with tags, fused parts or gaps DUP767-769): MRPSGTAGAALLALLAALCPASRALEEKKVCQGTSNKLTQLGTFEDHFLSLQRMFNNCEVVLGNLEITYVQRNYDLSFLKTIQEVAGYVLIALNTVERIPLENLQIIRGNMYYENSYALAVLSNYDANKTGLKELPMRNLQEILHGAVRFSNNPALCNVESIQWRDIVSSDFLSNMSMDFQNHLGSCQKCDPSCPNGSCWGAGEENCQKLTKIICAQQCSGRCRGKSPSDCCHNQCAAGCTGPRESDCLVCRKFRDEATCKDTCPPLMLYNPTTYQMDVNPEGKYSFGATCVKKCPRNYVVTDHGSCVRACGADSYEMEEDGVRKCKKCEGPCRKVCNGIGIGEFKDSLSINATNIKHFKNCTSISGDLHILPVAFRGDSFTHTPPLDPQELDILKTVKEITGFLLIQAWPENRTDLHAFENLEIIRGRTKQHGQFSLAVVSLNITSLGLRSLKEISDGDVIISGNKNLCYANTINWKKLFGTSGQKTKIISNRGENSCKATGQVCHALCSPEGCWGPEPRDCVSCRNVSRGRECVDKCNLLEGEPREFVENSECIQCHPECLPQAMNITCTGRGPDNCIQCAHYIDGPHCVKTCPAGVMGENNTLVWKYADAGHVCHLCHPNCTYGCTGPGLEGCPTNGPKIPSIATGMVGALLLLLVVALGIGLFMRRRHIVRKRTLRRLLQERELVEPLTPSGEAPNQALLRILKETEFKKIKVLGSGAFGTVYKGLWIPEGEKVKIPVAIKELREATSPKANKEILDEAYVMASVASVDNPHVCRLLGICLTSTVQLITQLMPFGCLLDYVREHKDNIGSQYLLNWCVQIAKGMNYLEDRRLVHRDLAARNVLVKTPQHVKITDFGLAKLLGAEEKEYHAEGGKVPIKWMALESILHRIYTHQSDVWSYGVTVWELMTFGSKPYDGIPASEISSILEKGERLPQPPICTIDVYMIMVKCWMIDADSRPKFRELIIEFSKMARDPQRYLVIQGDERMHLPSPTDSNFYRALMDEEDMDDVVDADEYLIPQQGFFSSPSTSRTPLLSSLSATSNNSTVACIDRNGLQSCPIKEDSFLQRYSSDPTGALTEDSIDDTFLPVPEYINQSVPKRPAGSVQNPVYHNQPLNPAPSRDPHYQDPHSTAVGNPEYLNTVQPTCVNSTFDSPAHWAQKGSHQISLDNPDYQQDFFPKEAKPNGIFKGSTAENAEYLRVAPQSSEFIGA
Procedure, shortened: (§1)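 Alamar Blue read-out, 3 h at 37 °C, after 72 hr compound exposure of Ba/F3 transfectants (15,000 cells/well, RPMI + 10% FBS, plated 16-18 h earlier).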

[2] = biological target: EGFR(D770_N771insSVD) expressing Ba/F3 stable cell line (Homo sapiens, UniProt P00533, DUP768-770, cells depend on it); assay: Cellular proliferation (Alamar Blue) assay, EGFR D770_N771insSVD Ba/F3; settings: 72 hr, read-out: D770 IC50
Sequence of EGFR(D770_N771insSVD) expressing Ba/F3 stable cell line (P00533 with tags, fused parts or gaps DUP768-770): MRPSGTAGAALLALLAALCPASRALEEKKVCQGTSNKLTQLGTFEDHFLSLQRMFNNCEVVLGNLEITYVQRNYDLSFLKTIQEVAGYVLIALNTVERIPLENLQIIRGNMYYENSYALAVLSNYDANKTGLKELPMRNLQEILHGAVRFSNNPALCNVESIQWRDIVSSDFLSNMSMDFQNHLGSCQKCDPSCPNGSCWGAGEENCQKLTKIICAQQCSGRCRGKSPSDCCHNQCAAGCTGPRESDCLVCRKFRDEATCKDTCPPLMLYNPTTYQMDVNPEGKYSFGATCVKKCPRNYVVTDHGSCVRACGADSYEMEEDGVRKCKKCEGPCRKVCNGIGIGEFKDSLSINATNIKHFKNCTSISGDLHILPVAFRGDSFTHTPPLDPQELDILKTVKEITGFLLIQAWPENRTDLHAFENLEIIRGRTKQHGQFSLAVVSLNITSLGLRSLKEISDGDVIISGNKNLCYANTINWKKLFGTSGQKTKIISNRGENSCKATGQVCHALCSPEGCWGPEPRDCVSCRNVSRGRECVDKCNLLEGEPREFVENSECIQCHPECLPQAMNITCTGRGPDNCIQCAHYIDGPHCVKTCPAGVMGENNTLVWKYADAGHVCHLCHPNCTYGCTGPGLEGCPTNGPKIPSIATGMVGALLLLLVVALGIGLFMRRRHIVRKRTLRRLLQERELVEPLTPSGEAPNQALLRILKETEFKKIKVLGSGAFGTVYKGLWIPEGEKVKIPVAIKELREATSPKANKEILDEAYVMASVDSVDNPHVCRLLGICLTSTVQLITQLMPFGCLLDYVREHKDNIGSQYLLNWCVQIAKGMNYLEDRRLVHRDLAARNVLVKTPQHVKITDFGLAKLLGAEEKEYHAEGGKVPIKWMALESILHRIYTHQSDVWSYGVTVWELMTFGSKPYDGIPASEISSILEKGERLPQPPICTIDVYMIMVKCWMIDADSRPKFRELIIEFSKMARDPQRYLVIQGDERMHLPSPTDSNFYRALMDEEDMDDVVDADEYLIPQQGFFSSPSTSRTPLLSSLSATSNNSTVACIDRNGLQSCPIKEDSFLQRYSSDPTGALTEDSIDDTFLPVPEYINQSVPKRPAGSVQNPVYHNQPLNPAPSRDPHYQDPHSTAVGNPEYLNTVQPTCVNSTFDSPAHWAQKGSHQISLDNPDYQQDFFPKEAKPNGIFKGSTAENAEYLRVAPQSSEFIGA
Procedure, shortened: as §1

[3] = biological target: HER2 (A775_G776insYVMA) expressing Ba/F3 stable cell line (Homo sapiens, UniProt P04626, DUP772-775, cells depend on it); assay: Cellular proliferation (Alamar Blue) assay, HER2 A775_G776insYVMA Ba/F3; settings: 72 hr, read-out: YVMA IC50
Sequence of HER2 (A775_G776insYVMA) expressing Ba/F3 stable cell line (P04626 with tags, fused parts or gaps DUP772-775): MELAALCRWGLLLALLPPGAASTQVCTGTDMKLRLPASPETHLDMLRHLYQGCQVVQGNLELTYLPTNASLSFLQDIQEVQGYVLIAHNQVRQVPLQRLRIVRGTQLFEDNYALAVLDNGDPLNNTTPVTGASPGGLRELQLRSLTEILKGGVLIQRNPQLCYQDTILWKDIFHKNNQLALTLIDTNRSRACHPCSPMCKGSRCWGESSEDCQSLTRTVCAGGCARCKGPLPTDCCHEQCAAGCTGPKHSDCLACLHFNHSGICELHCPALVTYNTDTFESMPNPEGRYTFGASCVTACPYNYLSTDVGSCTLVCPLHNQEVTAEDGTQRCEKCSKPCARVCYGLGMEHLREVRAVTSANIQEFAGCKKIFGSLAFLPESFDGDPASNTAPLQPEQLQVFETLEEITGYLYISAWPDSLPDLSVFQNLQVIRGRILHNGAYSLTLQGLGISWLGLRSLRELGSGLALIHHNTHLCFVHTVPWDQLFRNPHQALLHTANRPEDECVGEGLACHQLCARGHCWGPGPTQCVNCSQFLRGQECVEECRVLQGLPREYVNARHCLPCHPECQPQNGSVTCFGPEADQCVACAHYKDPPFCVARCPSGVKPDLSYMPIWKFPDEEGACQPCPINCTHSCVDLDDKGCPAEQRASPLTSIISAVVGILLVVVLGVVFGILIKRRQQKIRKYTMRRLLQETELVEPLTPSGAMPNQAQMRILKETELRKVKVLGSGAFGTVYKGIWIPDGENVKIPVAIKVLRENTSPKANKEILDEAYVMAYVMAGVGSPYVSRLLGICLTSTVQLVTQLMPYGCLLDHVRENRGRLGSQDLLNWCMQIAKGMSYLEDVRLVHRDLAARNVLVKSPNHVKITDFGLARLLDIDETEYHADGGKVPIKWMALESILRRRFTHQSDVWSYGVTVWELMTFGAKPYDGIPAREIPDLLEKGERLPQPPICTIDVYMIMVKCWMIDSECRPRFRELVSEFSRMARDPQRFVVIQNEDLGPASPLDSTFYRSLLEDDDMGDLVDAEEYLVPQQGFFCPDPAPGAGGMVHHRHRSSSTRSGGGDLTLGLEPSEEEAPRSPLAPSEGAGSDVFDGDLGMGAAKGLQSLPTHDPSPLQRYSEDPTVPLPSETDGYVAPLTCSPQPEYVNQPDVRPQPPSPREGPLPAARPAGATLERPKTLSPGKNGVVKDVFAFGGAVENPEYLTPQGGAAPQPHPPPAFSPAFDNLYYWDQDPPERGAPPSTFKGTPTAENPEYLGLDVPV
Procedure, shortened: as §1

[4] = Homo sapiens, A-431; A431 cells, Alamar Blue, 72 hr; read-out: A431 IC50
[5] = Homo sapiens, A-431; A431 cells, 72 hr, Alamar Blue; read-out: A431 IC50

Row | SMILES | IC50 (A431 cells; [4]) | GI50 [1] | GI50 [2] | GI50 [3] | IC50 (A431 cells; [5])
1 | C=CC(=O)Nc1ccc(Cl)c(Nc2nc(Nc3cnn(C)c3)ncc2Cl)c1 [Compound 8, N-(4-chloro-3-((5-chloro-2-((1-methyl-1H-pyrazol-4-yl)amino)pyrimidin-4-yl)amino)phenyl)acrylamide] | 8580 nM | 7580 nM | 7450 nM | 4990 nM | –
2 | C=CC(=O)Nc1ccc(F)c(Nc2nc(Nc3cn(CCO)nc3Cl)ncc2-c2ccc(C(F)(F)F)cc2)c1 [Compound 241, N-(3-((2-((3-chloro-1-(2-hydroxyethyl)-1H-pyrazol-4-yl)amino)-5-(4-(trifluoromethyl)phenyl)pyrimidin-4-yl)amino)-4-fluorophenyl)acrylamide] | – | 146 nM | 105 nM | 343 nM | 105 nM
3 | C=CC(=O)Nc1ccc(F)c(Nc2nc(Nc3cnn(C)c3)ncc2-c2cccc(OC(F)(F)F)c2)c1 [Compound 96, N-(4-fluoro-3-((2-((1-methyl-1H-pyrazol-4-yl)amino)-5-(3-(trifluoromethoxy)phenyl)pyrimidin-4-yl)amino)phenyl)acrylamide trifluoroacetate] | 1080 nM | 790 nM | 345 nM | 7730 nM | –
4 | C=CC(=O)Nc1cccc(Oc2nc(Nc3cnn(C)c3)cnc2C)c1 [Compound 158, N-(3-((3-methyl-6-((1-methyl-1H-pyrazol-4-yl)amino)pyrazin-2-yl)oxy)phenyl)acrylamide] | > 10000 nM | > 10000 nM | > 10000 nM | > 10000 nM | –
5 | C=CC(=O)Nc1ccc(F)c(Nc2nc(Nc3cnn(C)c3)ncc2-c2ccc3ccccc3c2)c1 [Compound 149, N-(4-fluoro-3-((2-((1-methyl-1H-pyrazol-4-yl)amino)-5-(naphthalen-2-yl)pyrimidin-4-yl)amino)phenyl)acrylamide trifluoroacetate] | 469 nM | 747 nM | 308 nM | 501 nM | –
6 | C=CC(=O)Nc1ccc(-c2ccccc2)c(Nc2ccnc(Nc3cnn(C)c3)n2)c1 [Compound 175, N-[2-({2-[(1-methyl-1H-pyrazol-4-yl)amino]pyrimidin-4-yl}amino)-[1,1′-biphenyl]-4-yl]prop-2-enamide] | > 10000 nM | > 10000 nM | > 10000 nM | > 10000 nM | –
7 | C=CC(=O)Nc1ccc(F)c(Nc2nc(Nc3cnn(C)c3)ncc2-c2ccc(C#N)cc2)c1 [Compound 62, N-(3-((5-(4-cyanophenyl)-2-((1-methyl-1H-pyrazol-4-yl)amino)pyrimidin-4-yl)amino)-4-fluorophenyl)acrylamide] | > 10000 nM | 307 nM | 323 nM | 2590 nM | –
8 | C=CC(=O)Nc1ccc(F)c(Nc2nc(Nc3cnn(C(C)(C)C#N)c3)ncc2-c2ccc(C(F)(F)F)cc2)c1 [Compound 246, N-(3-((2-((1-(2-cyanopropan-2-yl)-1H-pyrazol-4-yl)amino)-5-(4-(trifluoromethyl)phenyl)pyrimidin-4-yl)amino)-4-fluorophenyl)acrylamide] | – | 303 nM | 299 nM | 2070 nM | 368 nM
9 | C=CC(=O)Nc1ccc(-c2ccccc2)c(Nc2nc(Nc3cnn(C)c3)ncc2Cl)c1 [Compound 177, N-(2-((5-chloro-2-((1-methyl-1H-pyrazol-4-yl)amino)pyrimidin-4-yl)amino)-[1,1′-biphenyl]-4-yl)acrylamide] | > 10000 nM | > 10000 nM | > 10000 nM | > 10000 nM | –
10 | CN(C)C/C=C/C(=O)Nc1ccc(F)c(Nc2nc(Nc3cnn(C)c3)ncc2-c2ccc(CC(F)(F)F)cc2)c1 [Compound 301, (E)-4-(dimethylamino)-N-(4-fluoro-3-((2-((1-methyl-1H-pyrazol-4-yl)amino)-5-(4-(2,2,2-trifluoroethyl)phenyl)pyrimidin-4-yl)amino)phenyl)but-2-enamide] | – | 68 nM | 193 nM | 187 nM | 16 nM
11 | C=CC(=O)Nc1ccc(F)c(Nc2nc(Nc3cnn(C)c3)ncc2-c2ccc3ccoc3c2)c1 [Compound 299, N-(3-((5-(benzofuran-6-yl)-2-((1-methyl-1H-pyrazol-4-yl)amino)pyrimidin-4-yl)amino)-4-fluorophenyl)acrylamide] | – | 257 nM | 99 nM | 339 nM | 173 nM
12 | C=CC(=O)Nc1ccc(F)c(Oc2nc(Nc3cnn(C)c3)ncc2Cl)c1 [Compound 166, N-(3-((5-chloro-2-((1-methyl-1H-pyrazol-4-yl)amino)pyrimidin-4-yl)oxy)-4-fluorophenyl)acrylamide] | > 10000 nM | 1250 nM | 1320 nM | 1690 nM | –
13 | C=CC(=O)Nc1ccc(F)c(Nc2nc(Nc3cn(C)nc3Cl)ncc2-c2ccc(Br)cc2)c1 [Compound 204, N-(3-((5-(4-bromophenyl)-2-((3-chloro-1-methyl-1H-pyrazol-4-yl)amino)pyrimidin-4-yl)amino)-4-fluorophenyl)acrylamide] | – | 131 nM | 93 nM | 688 nM | 28 nM
14 | C=CC(=O)Nc1cccc(Nc2nc(Nc3cnn(C)c3)ncc2-c2ccc(Br)cc2)c1F [Compound 202, N-(3-((5-(4-bromophenyl)-2-((1-methyl-1H-pyrazol-4-yl)amino)pyrimidin-4-yl)amino)-2-fluorophenyl)acrylamide] | – | 34 nM | 35 nM | 217 nM | 44 nM
15 | C=CC(=O)Nc1ccc(F)c(Oc2nc(Nc3cnn(C4CCN(C)CC4)c3)ncc2Cl)c1 [Compound 168, N-(3-((5-chloro-2-((1-(1-methylpiperidin-4-yl)-1H-pyrazol-4-yl)amino)pyrimidin-4-yl)oxy)-4-fluorophenyl)acrylamide] | > 10000 nM | 904 nM | 929 nM | 2260 nM | –
16 | C=CC(=O)Nc1ccc(F)c(Nc2nc(Nc3cnn(C)c3)ncc2-c2ccc(C(C)(C)C)cc2)c1 [Compound 76, N-(3-((5-(4-(tert-butyl)phenyl)-2-((1-methyl-1H-pyrazol-4-yl)amino)pyrimidin-4-yl)amino)-4-fluorophenyl)acrylamide trifluoroacetate] | 156 nM | 308 nM | 265 nM | 3150 nM | –
17 | C=CC(=O)Nc1ccc(OC)c(Nc2nc(Nc3cnn(C)c3)ncc2Cl)c1 [Compound 13, N-(3-((5-chloro-2-((1-methyl-1H-pyrazol-4-yl)amino)pyrimidin-4-yl)amino)-4-methoxyphenyl)acrylamide] | > 10000 nM | > 10000 nM | > 10000 nM | > 10000 nM | –
